# Reference: patent publication US10494405B2, “Methods and compositions for the treatment of arthritis” (THE REGENTS OF THE UNIVERSITY OF MICHIGAN, priority 2015, dated 2019)
# Numbered stars: 1 amine (or outer) side, 2 acyl side, 3 side chain; on linkers, the order of the positions; unused ones are H or OH. Bridge positions count the residues as written; N and C are the ends. Square brackets hold non-standard residues; d marks the D form. Peptide text beside a SMILES is read from it. CO = O=C([*:1])[*:2]; Nlys = NCCCCNCC(=O)O
# Legend:
# [1] = test system: murine pre-OC cell line RAW 264.7; assay: In vitro osteoclastogenesis, mouse cells (RAW 264.7); type: cell-based
# From the text: In vitro osteoclastogenesis of murine pre-OC cell line RAW 264.7 in the presence of different doses of BK2.
# SE-activated signaling = assay: Inhibition of SE-activated signaling in vitro; type: cell-based; conditions: read-out: IC50, inhibitor of SE-activated signaling
# DBA/1 mice with CIA = assay: Collagen-induced arthritis (CIA) in DBA/1 mice; type: in vivo, mouse
# Experimental: A. DBA/1 mice with CIA received weekly ip doses of BK2, 446 pg/gm, or PBS (black) starting on day −1 relative to day of CIA induction, and joint swelling was recorded. N=10 per group. B. DBA/1 mice with CIA received a total of 4 weekly ip doses of BK2, 446 pg/gm, or PBS (black) starting at day 20 relative to day of CIA induction, at the time of arthritis onset, and joint swelling was recorded. Arrows indicate the treatment days. N=10 per group. C. DBA/1 mice with CIA received weekly sq doses of BK2446 pg/gm, or PBS (black) starting at day −1 relative to day of CIA induction, and joint swelling was recorded. N=10 per group. […] E. DBA/1 mice with CIA received a total of 4 weekly sq doses of BK2, 446 pg/gm, or PBS (black) starting at day 20 relative to day of CIA induction, at the time of arthritis onset, and joint swelling was recorded. Arrows indicate the treatment days. N=10 per group.
# human cells = assay: In vitro osteoclastogenesis, human cells; type: cell-based
smiles,measurement,setting,value
"C[C@H](NC(=O)CN1CCCCNC(=O)NCCCCN(C(=O)[C@@H](N)Cc2c[nH]c3ccccc23)CC(=O)N[C@@H](CC(=O)O)C(=O)N[C@@H](CCCCN)C(=O)N[C@@H](CO)C1=O)C(N)=O [BK2, Trp-c[Gly(4-aminobutyl)-Asp-Lys-Ser-Gly(4-aminobutyl)]-Ala-NH2] (H-W[Nlys]DKS[Nlys]A-NH2; linker 2-6 via CO)",IC50 of anti-osteoclastogenic effect in vitro,[1],pM-range
same,IC50,SE-activated signaling,~10 mM
same,Inhibition of bone destruction in vivo,DBA/1 mice with CIA; CIA mice,inhibition effect
same,Inhibition of osteoclastogenesis in vivo,DBA/1 mice with CIA; CIA mice,inhibition effect
same,Inhibition effect on CIA (joint swelling),"DBA/1 mice with CIA; DBA/1 mice, weekly ip or sq 446 pg/gm, from day -1 or day 20",highly potent (picogram-range doses) inhibition effect
same,Radiological scores (bone destruction),DBA/1 mice with CIA; FIG. 3D: weekly sq 446 pg/gm starting day -1,protective effect on bone destruction
same,Radiological scores (bone destruction),DBA/1 mice with CIA; FIG. 3F: 4 weekly sq doses 446 pg/gm starting day 20 (arthritis onset),protective effect on bone destruction
same,IC50 of anti-osteoclastogenic effect in vitro,human cells,pM-range
